The values below come from article PMC8317135 (Journal of medicinal chemistry, 2021).

Data set [1] deals with T1, hP2Y14R (Homo sapiens, UniProt Q15391).
T1 sequence (Q15391 1-338): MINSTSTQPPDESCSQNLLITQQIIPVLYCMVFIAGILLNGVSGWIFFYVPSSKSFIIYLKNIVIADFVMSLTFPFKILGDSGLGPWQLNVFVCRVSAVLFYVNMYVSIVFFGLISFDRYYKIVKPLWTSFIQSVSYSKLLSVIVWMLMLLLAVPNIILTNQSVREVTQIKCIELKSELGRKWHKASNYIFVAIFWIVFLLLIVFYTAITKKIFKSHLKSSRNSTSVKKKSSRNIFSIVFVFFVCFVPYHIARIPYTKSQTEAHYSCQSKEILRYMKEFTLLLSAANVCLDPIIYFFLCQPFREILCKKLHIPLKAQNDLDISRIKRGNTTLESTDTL
The following applies: for hP2Y14R affinity in words: hP2Y14R-expressing CHO cells, tracer 2.

In data set [2] the test system is 46 receptors and channels. In words: PDSP off-target radioligand binding screen. The following applies: radioligand binding at 46 receptors and channels.
Data set [3] concerns the target T1, hP2Y14R. In words: cell-based. The following applies: IC50 / affinity at hP2Y14R (μM), hP2Y14R-expressing CHO cells, tracer 2.
In data set [4] the test system is CCI-induced mechano-allodynia. As to conditions: mouse; cited from earlier work.
Data set [5] has as its system eosinophils in the bronchoalveolar lavage fluid (BALF). In words: Ovalbumin/Aspergillus protease mouse model of allergic asthma, BALF leukocytes. The format is in vivo. The following applies: 2 days post-challenge; for eosinophil counts in the BALF / efficacy in asthma model: 20 μmol kg^−1, i.p. prior to allergen challenge.
The subject of data set [6] is porcine liver esterase (PLE). In words: Esterase cleavage of prodrugs by porcine liver esterase. The following applies: for percent cleavage at 72 h: pH 7.3 aqueous medium, PLE, 37 °C; for half-life at 1 mM: pig, pH 7.3.
Data set [7] can be described thus: Lipophilicity based on HPLC retention time. Format: physicochemical. The following applies: relative to 1a.
Data set [8] can be described thus: in vivo. As to conditions: male, Wistar, rat.
Data set [9] concerns CCI-induced mechano-allodynia. In words: Chronic constriction injury. As to conditions: mouse.
The mark [10] stands for this setting: male Wistar rats, 1.0 mg kg^−1 i.p.
Setting [11] is: male Wistar rats, 3.0 mg kg^−1 i.p.
Where [12] appears, read: male Wistar rats, 10 mg kg^−1 i.p.

“Also recorded” adds a separate entry of the source. Like-named read-outs stand apart in the source and are kept apart here. Where only a bound is given, the exact number is not on record here.

Take `NCCCNC(=O)c1ccc(-c2cc(C(=O)O)cc(-n3cc(-c4ccc(C(F)(F)F)cc4)nn3)c2)cc1` [Compound 14, 4′-((3-Aminopropyl)carbamoyl)-5-(4-(4-(trifluoromethyl)-phenyl)-1H-1,2,3-triazol-1-yl)-[1,1′-biphenyl]-3-carboxylic Acid]: the “fold lower affinity than thienyl derivative 4” value in data set [1] (compared to 4) is given as 3.5 fold. The “hP2Y14R affinity in words” value in data set [1] was “submicromolar affinity”.

Consider `NCC#Cc1ccc(-c2cc(C(=O)O)cc(-n3cc(-c4ccc(C(F)(F)F)cc4)nn3)c2)cc1` [Compound 19, 4′-(3-Aminoprop-1-yn-1-yl)-5-(4-(4-(trifluoromethyl)phenyl)-1H-1,2,3-triazol-1-yl)-[1,1′-biphenyl]-3-carboxylic Acid], for which the “off-target interactions in the standard PDSP screen” value in data set [2] was “did not show any off-target interactions”. Also, in data set [1], the “hP2Y14R affinity in words” value is listed as “submicromolar affinity”.

As to `O=C(O)c1ccc(-c2cc(C(=O)O)cc(-n3cc(-c4ccc(C(F)(F)F)cc4)nn3)c2)cc1` [Compound 13, 5-(4-(4-(Trifluoromethyl)phenyl)-1H-1,2,3-triazol-1-yl)-[1,1′-bi-phenyl]-3,4′-dicarboxylic Acid], the IC50 in data set [3] is about 0.6 µM. In addition, the “off-target interactions in the standard PDSP screen” value in data set [2] was “did not show any off-target interactions”.

With `CC(=O)N1CCC(c2ccc(-c3cc(C(=O)O)cc4cc(-c5ccc(C(F)(F)F)cc5)ccc34)cc2)CC1` [Compound 1b, reference compound], the “effect on chronic pain in the CCI model” value in [4] was “effective in reducing chronic pain”. Besides, the “eosinophil counts in the BALF / efficacy in asthma model” value in [5] was “no significant reduction”.

`O=C(O)c1cc(-c2ccc(-c3nnn[nH]3)cc2)cc(-n2cc(-c3ccc(C(F)(F)F)cc3)nn2)c1` [Compound 31, 4′-(1H-Tetrazol-5-yl)-5-(4-(4-(trifluoromethyl)phenyl)-1H-1,2,3-triazol-1-yl)-[1,1′-biphenyl]-3-carboxylic Acid]: the “hP2Y14R affinity in words” value in [1] is “submicromolar affinity”.

For the compound `CC(C)(C)OC(=O)N1CCC(C(=O)Nc2ccc(-c3cc(C(=O)O)cc(-n4cc(-c5ccc(C(F)(F)F)cc5)nn4)c3)cc2)CC1` [Compound 12, 4′-(1-(tert-Butoxycarbonyl)piperidine-4-carboxamido)-5-(4-(4-(trifluoromethyl)phenyl)-1H-1,2,3-triazol-1-yl)-[1,1′-biphenyl]-3-carboxylic Acid], in data set [1] (N-Boc protected forms compared to 11 and 18), the “fold weaker in binding than the parent amines” value is over 100 fold.

As for `O=C(O)c1cc(-c2ccc(CCCCO)cc2)cc(-n2cc(-c3ccc(C(F)(F)F)cc3)nn2)c1` [Compound 21, 4′-(4-Hydroxybutyl)-5-(4-(4-(trifluoromethyl)phenyl)-1H-1,2,3-triazol-1-yl)-[1,1′-biphenyl]-3-carboxylic Acid], the “hP2Y14R affinity in words” value in [1] was “bound weakly”.

On to `CC(=O)N1CCC(c2ccc(-c3cc(C(=O)OCC(=O)N(C)C)cc4cc(-c5ccc(C(F)(F)F)cc5)ccc34)cc2)CC1` [Compound 37c, 2-(Dimethylamino)-2-oxoethyl 4-(4-(1-Acetylpiperidin-4-yl)-phenyl)-7-(4-(trifluoromethyl)phenyl)-2-naphthoate], for which, in [6], the “percent cleavage at 72 h” value was under 50% and the half-life at 1 mM is over 72 min. In addition, the “eosinophil counts in the BALF / efficacy in asthma model” value in data set [5] is reported as “significantly reduced eosinophils; also recorded: highly efficacious”.

As to `O=C(O)c1cc(-c2ccc(-c3cc(CO)on3)cc2)c2ccc(-c3ccc(C(F)(F)F)cc3)cc2c1` [Compound 32, 4-(4-(5-(Hydroxymethyl)isoxazol-3-yl)phenyl)-7-(4-(trifluoromethyl)phenyl)-2-naphthoic Acid], the “hydrophilicity gain compared to 1a” value in data set [7] is reported as −0.80 cLogP units. In data set [8] (ip, 1 mg/kg), this compound showed an AUC(0-t) at 24 h of 650 ng·h/mL, a maximum concentration (Cmax) at 24 h of 88.4 ng/mL and a half-life of 434 min. In [8] (ip, 3 mg/kg), this compound had an AUC(0-inf) at 24 h of 2120 ng·h/mL, an AUC(0-t) at 24 h of 2060 ng·h/mL, a Cmax at 24 h of 315 ng/mL and a half-life at 24 h of 281 min. In data set [8] (ip, 10 mg/kg), this compound gave a total exposure AUC(0-inf) at 24 h of 4920 ng·h/mL, an AUC(0-t) at 24 h of 4900 ng·h/mL, a Cmax at 24 h of 786 ng/mL and a half-life at 24 h of 179 min. In data set [8] (iv, 0.5 mg/kg), the AUC(0-inf) at 24 h was found to be 238 ng·h/mL, the AUC(0-t) at 24 h is 234 ng·h/mL, the Cmax at 24 h was 359 ng/mL and the Vd at 24 h came to 2.09 L/kg. Also, in data set [8] (iv, 0.5 mg/kg), the clearance at 24 h was 35.2 mL/min/kg and the half-life at 24 h was 41.3 min. Further, in [9] (10 μmol kg^−1 (4.9 mg kg^−1), i.p., 1 h post-injection), the “maximal reversal of CCI-induced mechano-allodynia” value stood at 71.0 ± 17.4%. For the same compound, the side effects result in data set [9] (10 μmol kg^−1, i.p.) is “No side effects were evident”. Besides, the “protection against CCI-induced mechano-allodynia at 3 or 5 h” value in [9] (10 μmol kg^−1, i.p., 3 or 5 h post-injection) was “not statistically significant”. In addition, the “eosinophil counts in the BALF / efficacy in asthma model” value in data set [5] is “no significant reduction”. Besides, the clinical signs entry (all rat groups at all time points (up to 24 h)) is “normal”. Moreover, the “Kel (1 h^−1)” value (male Wistar rats, 0.5 mg kg^−1 i.v.) is given as 1.01 1 h^−1. For the same compound, under setting [10], the “Cl” value was 1430 mL/h/kg, the “Kel (1 h^−1)” value is listed as 0.096 1 h^−1 and the “Vd (mL kg^−1)” value is recorded as 14,900 mL kg^−1. Further, under setting [11], the “Cl” value stood at 1420 mL/h/kg, the “Kel (1 h^−1)” value is recorded as 0.148 1 h^−1 and the “Vd” value is 9570 mL/kg. Moreover, under setting [12], the “Cl” value was found to be 2030 mL/h/kg, the “Kel (1 h^−1)” value was 0.233 1 h^−1 and the “Vd” value was found to be 8730 mL/kg. Further, where the note is “rat, 10 mg kg^−1, i.p., 4 h post-injection”, the peak concentration is 1.61 µM.

For `CN(C)C(=O)COC(=O)c1cc(-c2ccc(C3CCNCC3)cc2)cc(-n2cc(-c3ccc(C(F)(F)F)cc3)nn2)c1` [Compound 37a, 2-(Dimethylamino)-2-oxoethyl 4′-(Piperidin-4-yl)-5-(4-(4-(trifluoromethyl)phenyl)-1H-1,2,3-triazol-1-yl)-[1,1′-biphenyl]-3-carboxylate], in [2], the “number of off-target interactions in the μM range” value was 18 and the “off-target interactions in the standard PDSP screen” value is recorded as “promiscuous in off-target binding”. Besides, the “eosinophil counts in the BALF / efficacy in asthma model” value in data set [5] is on record as “lack of in vivo activity”. The “lymphocyte count in the BALF” value in data set [5] (20 μmol kg^−1, i.p.) is on record as “trended higher than in a vehicle control”.

As for `CC(=O)Nc1ccc(-c2cc(C(=O)O)cc(-n3cc(-c4ccc(C(F)(F)F)cc4)nn3)c2)cc1` [Compound 8, 4′-Acetamido-5-(4-(4-(trifluoromethyl)phenyl)-1H-1,2,3-triazol-1-yl)-[1,1′-biphenyl]-3-carboxylic Acid], the “hP2Y14R affinity in words” value in data set [1] is “submicromolar affinity”.

`NCCCc1ccc(-c2cc(C(=O)O)cc(-n3cc(-c4ccc(C(F)(F)F)cc4)nn3)c2)cc1` [Compound 18, 4′-(3-Aminopropyl)-5-(4-(4-(trifluoromethyl)phenyl)-1H-1,2,3-triazol-1-yl)-[1,1′-biphenyl]-3-carboxylic Acid]: in [2], the “off-target interactions in the standard PDSP screen” value was “did not show any off-target interactions”. Moreover, the “hP2Y14R affinity in words” value in data set [1] is “submicromolar affinity”.

Regarding `CN(C)C(=O)COC(=O)c1cc(-c2ccc(-c3cc(CO)on3)cc2)c2ccc(-c3ccc(C(F)(F)F)cc3)cc2c1` [Compound 37b, 2-(Dimethylamino)-2-oxoethyl 4-(4-(5-(Hydroxymethyl)isoxazol-3-yl)phenyl)-7-(4-(trifluoromethyl)phenyl)-2-naphthoate], in [6], the “percent cleavage at 72 h” value is reported as under 50% and the half-life at 1 mM is over 72 min. In addition, the “eosinophil counts in the BALF / efficacy in asthma model” value in data set [5] is recorded as “significantly reduced eosinophils; also recorded: highly efficacious”.
